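Step 1: Grow cells in 96-well plates. Step 2: Expose to compound for 48 hours at 5 concentrations. Step 3: Interpolate endpoints linearly; if unreached, use highest concentration. Abbreviation: GI50, concentration required for 50% inhibition of growth. At the TGI there is no net growth.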
Tests used:
Test in all cases: NCI anticancer screen, dose series, 48 h
A498 renal = test system: A498 renal
ACHN renal = test system: ACHN renal
BT-549 breast = test system: BT-549 breast
CCRF-CEM leukemia = test system: CCRF-CEM leukemia
DU-145 prostate = test system: DU-145 prostate
EKVX NSCLC = test system: EKVX NSCLC
HCC-2998 colon = test system: HCC-2998 colon
HCT-116 colon = test system: HCT-116 colon
HCT-15 colon = test system: HCT-15 colon
HL-60(TB) leukemia = test system: HL-60(TB) leukemia
HOP-62 NSCLC = test system: HOP-62 NSCLC
HS 578T breast = test system: HS 578T breast
HT29 colon = test system: HT29 colon
K-562 leukemia = test system: K-562 leukemia
KM12 colon = test system: KM12 colon
LOX IMVI melanoma = test system: LOX IMVI melanoma
M14 melanoma = test system: M14 melanoma
MALME-3M melanoma = test system: MALME-3M melanoma
MCF7 breast = test system: MCF7 breast
MDA-MB-231 breast = test system: MDA-MB-231 breast
MDA-MB-435 = test system: MDA-MB-435
MOLT-4 leukemia = test system: MOLT-4 leukemia
NCI-H226 lung = test system: NCI-H226 lung
NCI-H23 lung = test system: NCI-H23 lung
NCI-H460 lung = test system: NCI-H460 lung
NCI-H522 lung = test system: NCI-H522 lung
OVCAR-3 ovarian = test system: OVCAR-3 ovarian
OVCAR-5 ovarian = test system: OVCAR-5 ovarian
RPMI-8226 leukemia = test system: RPMI-8226 leukemia
RXF 393 renal = test system: RXF 393 renal
SF-268 CNS = test system: SF-268 CNS
SF-539 CNS = test system: SF-539 CNS
SK-MEL-2 melanoma = test system: SK-MEL-2 melanoma
SK-MEL-28 melanoma = test system: SK-MEL-28 melanoma
SK-OV-3 ovarian = test system: SK-OV-3 ovarian
SN12C renal = test system: SN12C renal
SNB-19 CNS = test system: SNB-19 CNS
SNB-75 CNS = test system: SNB-75 CNS
SR leukemia = test system: SR leukemia
T-47D breast = test system: T-47D breast
TK-10 renal = test system: TK-10 renal
U251 CNS = test system: U251 CNS
UACC-257 melanoma = test system: UACC-257 melanoma
UACC-62 melanoma = test system: UACC-62 melanoma
UO-31 renal = test system: UO-31 renal
786-0 renal = test system: 786-0 renal
A549 NSCLC = test system: A549 NSCLC
CAKI-1 renal = test system: CAKI-1 renal
COLO 205 colon = test system: COLO 205 colon
IGROV1 ovarian = test system: IGROV1 ovarian
NCI/ADR-RES ovarian = test system: NCI/ADR-RES ovarian
OVCAR-4 ovarian = test system: OVCAR-4 ovarian
OVCAR-8 ovarian = test system: OVCAR-8 ovarian
PC-3 prostate = test system: PC-3 prostate
SF-295 CNS = test system: SF-295 CNS
SK-MEL-5 melanoma = test system: SK-MEL-5 melanoma
SW-620 colon = test system: SW-620 colon

Work on `CCCCOC(=O)NC(Nc1ccc(S(N)(=O)=O)cc1)(C(F)(F)F)C(F)(F)F` yielded a TGI (A498 renal) of over 100 µM, a TGI (ACHN renal) of over 100 µM and a TGI (BT-549 breast) of over 100 µM. For the same molecule, the TGI (CCRF-CEM leukemia) was over 100 µM, the TGI (DU-145 prostate) was over 100 µM and the TGI (EKVX NSCLC) was over 100 µM. For the same molecule, the TGI (HCC-2998 colon) was over 100 µM, the TGI (HCT-116 colon) was over 100 µM and the TGI (HCT-15 colon) was over 100 µM. It also gave a TGI (HL-60(TB) leukemia) of over 100 µM, a TGI (HOP-62 NSCLC) of over 100 µM and a TGI (HS 578T breast) of over 100 µM. For the same molecule, the TGI (HT29 colon) was over 100 µM, the TGI (K-562 leukemia) was over 100 µM and the TGI (KM12 colon) was over 100 µM. The TGI (LOX IMVI melanoma) was over 100 µM, the TGI (M14 melanoma) was over 100 µM and the TGI (MALME-3M melanoma) was over 100 µM. It also gave a TGI (MCF7 breast) of over 100 µM, a TGI (MDA-MB-231 breast) of over 100 µM and a TGI (MDA-MB-435) of over 100 µM. For the same molecule, the TGI (MOLT-4 leukemia) was over 100 µM, the TGI (NCI-H226 lung) was over 100 µM and the TGI (NCI-H23 lung) was over 100 µM. The TGI (NCI-H460 lung) was over 100 µM, the TGI (NCI-H522 lung) was over 100 µM and the TGI (OVCAR-3 ovarian) was over 100 µM. The TGI (OVCAR-5 ovarian) was over 100 µM, the TGI (RPMI-8226 leukemia) was over 100 µM and the TGI (RXF 393 renal) was over 100 µM. The TGI (SF-268 CNS) was over 100 µM, the TGI (SF-539 CNS) was over 100 µM and the TGI (SK-MEL-2 melanoma) was over 100 µM. It also gave a TGI (SK-MEL-28 melanoma) of over 100 µM, a TGI (SK-OV-3 ovarian) of over 100 µM and a TGI (SN12C renal) of over 100 µM. The TGI (SNB-19 CNS) was over 100 µM, the TGI (SNB-75 CNS) was over 100 µM and the TGI (SR leukemia) was over 100 µM. The TGI (T-47D breast) was over 100 µM, the TGI (TK-10 renal) was over 100 µM and the TGI (U251 CNS) was over 100 µM. It also gave a TGI (UACC-257 melanoma) of over 100 µM, a TGI (UACC-62 melanoma) of over 100 µM and a TGI (UO-31 renal) of over 100 µM.
Work on `Cc1c(C(=O)O)n(-c2ccc(Cl)cc2)c2ncnc(N)c12` yielded a GI50 (786-0 renal) of 21.1 µM, a TGI (786-0 renal) of 56.2 µM and a GI50 (A498 renal) of 19.4 µM. It also gave a TGI (A498 renal) of 52.2 µM, a GI50 (A549 NSCLC) of 17.4 µM and a TGI (A549 NSCLC) of 65.3 µM. It also gave a GI50 (ACHN renal) of 22.6 µM, a TGI (ACHN renal) of 96.9 µM and a GI50 (BT-549 breast) of 21.7 µM. It also gave a TGI (BT-549 breast) of 58.7 µM, a GI50 (CAKI-1 renal) of 19.2 µM and a TGI (CAKI-1 renal) of 67.8 µM. For the same molecule, the GI50 (CCRF-CEM leukemia) was 27.8 µM, the TGI (CCRF-CEM leukemia) was 90.5 µM and the GI50 (COLO 205 colon) was 21.7 µM. The TGI (COLO 205 colon) was 43.3 µM, the GI50 (DU-145 prostate) was 24.1 µM and the TGI (DU-145 prostate) was 75.4 µM. For the same molecule, the GI50 (EKVX NSCLC) was 17.2 µM, the TGI (EKVX NSCLC) was 56.1 µM and the GI50 (HCC-2998 colon) was 23.6 µM. It also gave a TGI (HCC-2998 colon) of 57.1 µM, a GI50 (HCT-116 colon) of 20.5 µM and a TGI (HCT-116 colon) of 47.7 µM. The GI50 (HCT-15 colon) was 24.1 µM, the TGI (HCT-15 colon) was 96.9 µM and the GI50 (HL-60(TB) leukemia) was 37.3 µM. The TGI (HL-60(TB) leukemia) was over 100 µM, the GI50 (HOP-62 NSCLC) was 20 µM and the TGI (HOP-62 NSCLC) was 58.6 µM. For the same molecule, the GI50 (HS 578T breast) was 23.1 µM, the TGI (HS 578T breast) was 69.6 µM and the GI50 (HT29 colon) was 22.6 µM. It also gave a TGI (HT29 colon) of 51 µM, a GI50 (IGROV1 ovarian) of 14.6 µM and a TGI (IGROV1 ovarian) of over 100 µM. It also gave a GI50 (K-562 leukemia) of 21.4 µM, a TGI (K-562 leukemia) of over 100 µM and a GI50 (KM12 colon) of 29.9 µM. For the same molecule, the TGI (KM12 colon) was over 100 µM, the GI50 (LOX IMVI melanoma) was 30.1 µM and the TGI (LOX IMVI melanoma) was over 100 µM. It also gave a GI50 (M14 melanoma) of 22.6 µM, a TGI (M14 melanoma) of 53.6 µM and a GI50 (MALME-3M melanoma) of 31.5 µM. For the same molecule, the TGI (MALME-3M melanoma) was 75.7 µM, the GI50 (MCF7 breast) was over 100 µM and the TGI (MCF7 breast) was over 100 µM. It also gave a GI50 (MDA-MB-231 breast) of 18 µM, a TGI (MDA-MB-231 breast) of 70.1 µM and a GI50 (MDA-MB-435) of 33.2 µM. It also gave a TGI (MDA-MB-435) of over 100 µM, a GI50 (MOLT-4 leukemia) of 31.2 µM and a TGI (MOLT-4 leukemia) of over 100 µM. It also gave a GI50 (NCI-H226 lung) of 14.9 µM, a TGI (NCI-H226 lung) of 50.2 µM and a GI50 (NCI-H23 lung) of 16.7 µM. The TGI (NCI-H23 lung) was 37.2 µM, the GI50 (NCI-H460 lung) was 14.5 µM and the TGI (NCI-H460 lung) was 37.8 µM. It also gave a GI50 (NCI-H522 lung) of 16 µM, a TGI (NCI-H522 lung) of 50.5 µM and a GI50 (NCI/ADR-RES ovarian) of 25.1 µM. For the same molecule, the TGI (NCI/ADR-RES ovarian) was over 100 µM, the GI50 (OVCAR-3 ovarian) was 17.5 µM and the TGI (OVCAR-3 ovarian) was over 100 µM. It also gave a GI50 (OVCAR-4 ovarian) of 48.4 µM, a TGI (OVCAR-4 ovarian) of over 100 µM and a GI50 (OVCAR-5 ovarian) of 46.4 µM. It also gave a TGI (OVCAR-5 ovarian) of over 100 µM, a GI50 (OVCAR-8 ovarian) of 14 µM and a TGI (OVCAR-8 ovarian) of 59.9 µM. It also gave a GI50 (PC-3 prostate) of 19.4 µM, a TGI (PC-3 prostate) of 54.6 µM and a GI50 (RPMI-8226 leukemia) of 12.4 µM. The TGI (RPMI-8226 leukemia) was 35.8 µM, the GI50 (RXF 393 renal) was 13.6 µM and the TGI (RXF 393 renal) was 39.5 µM. For the same molecule, the GI50 (SF-268 CNS) was 12.2 µM, the TGI (SF-268 CNS) was 38.9 µM and the GI50 (SF-295 CNS) was 28.7 µM. It also gave a TGI (SF-295 CNS) of over 100 µM, a GI50 (SF-539 CNS) of 22.7 µM and a TGI (SF-539 CNS) of 48.6 µM. The GI50 (SK-MEL-2 melanoma) was 46.9 µM, the TGI (SK-MEL-2 melanoma) was over 100 µM and the GI50 (SK-MEL-28 melanoma) was 64.8 µM. The TGI (SK-MEL-28 melanoma) was over 100 µM, the GI50 (SK-MEL-5 melanoma) was 16.2 µM and the TGI (SK-MEL-5 melanoma) was 29.9 µM. The GI50 (SK-OV-3 ovarian) was 43.9 µM, the TGI (SK-OV-3 ovarian) was 75.1 µM and the GI50 (SN12C renal) was 19.5 µM. For the same molecule, the TGI (SN12C renal) was 57.1 µM, the GI50 (SNB-19 CNS) was 36.4 µM and the TGI (SNB-19 CNS) was 97.6 µM. The GI50 (SNB-75 CNS) was 62 µM, the TGI (SNB-75 CNS) was over 100 µM and the GI50 (SR leukemia) was 16.6 µM. The TGI (SR leukemia) was over 100 µM, the GI50 (SW-620 colon) was 32.3 µM and the TGI (SW-620 colon) was over 100 µM. For the same molecule, the GI50 (TK-10 renal) was 21.8 µM, the TGI (TK-10 renal) was 70.1 µM and the GI50 (U251 CNS) was 31.8 µM. The TGI (U251 CNS) was over 100 µM, the GI50 (UACC-257 melanoma) was 36.2 µM and the TGI (UACC-257 melanoma) was over 100 µM. It also gave a GI50 (UACC-62 melanoma) of 17 µM, a TGI (UACC-62 melanoma) of 41.9 µM and a GI50 (UO-31 renal) of 10.3 µM. The TGI (UO-31 renal) was over 100 µM.

Source: PubChem BioAssay (NCI)
